# Measured values as given in patent publication US5081245A, “Carboxylic acid derivatives” (Takeda Chemical Industries, Ltd., priority 1988, dated 1992).
# Assays:
# [1] = tested on: human oral epidermoid carcinoma KB cells; experiment: Growth inhibitory effect against KB cells (MTT, 72 h); format: cell-based; conditions: absorbance 590 nm
# Procedure: Growth Inhibitory Effect (IC50) of Compounds Obtained in Examples Against KB Cells Human oral epidermoid carcinoma KB cells (1×10^4 cells/ml) were transferred to a 96-well microwell plate at 0.1 ml per well and subjected to stationary culture at 37° C. with 5% CO2 for 24 hours. To the resulting culture was added a 10% MEM (Nissui Junyaku) solution of a compound of an Example, followed by stationary culture at 37° C. with 5% CO2 for 72 hours. The culture broth was then removed using a micropipette. 0.1 ml of a 10% minimal essential medium solution containing 3-(4,5-dimethylthiazol-2-yl)-2,5-diphenyl-2H-tetrazolium bromide (Dojin Kagaku) (1.0 mg/ml) was added, followed by cultivation at 37° C. for 4 hours. 0.1 ml of a 10% sodium dodecylsulfate (Wako Pure Chemical) was then added, followed by cultivation at 37° C. for 24 hours.
# CDF-1 mice = experiment: Acute toxicity test in mice, single intraperitoneal administration; format: in vivo; conditions: single i.p., female CDF-1 mice, 7 days observation
# Procedure: Acute Toxicity Test with Compounds of Example in Mice
# 0.2 ml of a solution of a compound of the Example in physiological saline was intraperitoneally administered once to female CDF-1 mice (5 weeks in age, 5 animals per group). Observation was conducted for 7 days following the administration.
# [2] = cited from earlier work
# Sarcoma 180 cells [3] = experiment: Antitumor activity on Sarcoma 180 cells in ICR mice, oral; format: in vivo; conditions: 0.3 mg/mouse, 9 times, tumor weight after 21 days
# Procedure: (§1) Antitumor Activity of Compounds Obtained in Examples on Sarcoma 180 Cells
# (1) Sarcoma 180 cells were subcutaneously transplanted to the side of the back of ICR mice (5 mice per group) at 1×10^6 cells per animal. 8, 9, 10, 13, 14, 15, 16, 17 and 20 days after the transplantation (a total of 9 times), the compound of Example 1, dissolved in physiological saline, was orally administered (0.3 mg/mouse). After 21 days, the tumor tissue was excised and weighed.
# Sarcoma 180 cells [4] = experiment: Antitumor activity on Sarcoma 180 cells in ICR mice, intraperitoneal; format: in vivo; conditions: 0.1 mg/mouse, 8 times, tumor weight after 21 days
# Procedure: as §1
# (2) Sarcoma 180 cells were subcutaneously transplanted to the side of the back of ICR mice (5 mice per group) at 1×10^6 cells per animal. 8, 9, 12, 13, 15, 16, 19 and 20 days after the transplantation (a total of 8 times), a compound of an Example, dissolved in physiological saline, was intraperitoneally administered (0.1 mg/mouse). After 21 days, the tumor tissue was excised and weighed.
structure (smiles),measurement,setting,value
"CCCCCCCCCCCCCCCCCCOCC(COCCOCC[n+]1ccn(CCC(C)(C)C(=O)OCC)c1)Oc1ncccn1 (stereo not shown) [Example 15, 1-(3-ethoxycarbonyl-3-methyl)butyl-3-[2-[2-[3-octadecyloxy-2-(pyrimidin-2-yloxy)propoxy]-ethoxy]ethylimidazolium chloride]",IC50,[1],0.63 µg/mL
"CCCCCCCCCCCCCCCCCCOCC(COCCCC[n+]1cccc(CCC(=O)[O-])c1)Oc1ncccn1 (stereo not shown) [Example 22, 3-[1-[4-[3-octadecyloxy-2-(pyrimidin-2-yloxy)-propoxy]butyl]pyridinio-3-yl]propionate]",IC50,[1],0.63 µg/mL
"CCCCCCCCCCCCCCCCCCOCC(COCCOCC[n+]1ccn(CC(=O)[O-])c1)OCCCCCC (stereo not shown) [Example 6, 2-[3-[2-[2-[2-hexyloxy-3-octadecyloxypropoxy]-ethoxy]ethyl]imidazolio-1-yl]acetate]",Number of mice that died/number of subject mice,CDF-1 mice; 50 mg/kg,0/5
same,IC50,[1],2.5 µg/mL
"CCCCCCCCCCCCCCCCCCOCC(COCCOCC[N+](C)(C)CCCCCC(=O)[O-])OCC(C)=O (stereo not shown) [Example 5, 6-[N,N-dimethyl-N-[2-[2-[3-octadecyloxy-2-(2-oxopropoxy)propoxy]ethoxy]ethyl]ammonio]hexanoate]",Number of mice that died/number of subject mice,CDF-1 mice; 50 mg/kg,0/5
same,IC50,[1],2.5 µg/mL
"CCCCCCCCCCCCCCCCCCOCC(COCCOCC[N+]1(CCCCCC(=O)[O-])CCCC1)Oc1ncccn1 (stereo not shown) [Example 17, 6-[1-[2-[2-[3-octadecyloxy-2-(pyrimidin-2-yloxy)-propoxy]ethoxy]ethyl]pyrrolidinio-1-yl]hexanoate]",IC50,[1],0.32 µg/mL
"O=C([O-])CCCn1cc[n+](CCOCCOCC(COCCCCCCCCCCCCC2CCCCC2)Oc2ncccn2)c1 (stereo not shown) [Example 24, 4-[3-[2-[2-[3-(12-cyclohexyldodecyloxy)-2-(pyrimidin-2-yloxy)propoxy]ethoxy]ethyl]imidazolio-1-yl]butyrate]",IC50,[1],0.32 µg/mL
CCCCCCCCCCCCCCCCCCOCC(COP(=O)([O-])OCC[N+](C)(C)C)OC (stereo not shown) [phospholipid represented by formula (II)],antitumor activities,"[2]; Anticancer Research, 1, 345 (1981)",possess antitumor activities
same,adverse effects,"[2]; clinical trial limitation, similarity to PAF","various adverse effects such as bronchostenosis, platelet aggregation and hypotension"
"CCCCCCCCCCCCCCCCCCOCC(COCCOCC[n+]1ccn(CCCOC(=O)CCC(=O)[O-])c1)Oc1ncccn1 (stereo not shown) [Example 18, 3-[3-[2-[2-[3-octadecyloxy-2-(pyrimidin-2-yloxy)-propoxy]ethoxy]ethyl]imidazolio-1-yl]propyl succinate]",IC50,[1],0.32 µg/mL
"CCCCCCCCCCCCCCCCCCOCC(COCCCC[n+]1cccc(CCCCC(=O)[O-])c1)Oc1ncccn1 (stereo not shown) [Example 23, 5-[1-[4-[3-octadecyloxy-2-(pyrimidin-2-yloxy)-propoxy]butyl]pyridinio-3-yl]pentanoate]",IC50,[1],0.32 µg/mL
CCCCCCCCCCCCCCCCCCOCC(COCCOCC[n+]1ccn(CCCCCC(=O)[O-])c1)OCC(C)=O (stereo not shown) [Example 3],Number of mice that died/number of subject mice,CDF-1 mice; 50 mg/kg,0/5
same,IC50,[1],0.32 µg/mL
"CCCCCCCCCCCCCCCCCCOCC(COCCOCC[n+]1ccn(CCCCc2ccc(C(=O)[O-])cc2)c1)Oc1ncccn1 (stereo not shown) [Example 10, 4-[4-[3-[2-[2-[3-octadecyloxy-2-(pyrimidin-2-yloxy)-propoxy]ethoxy]ethyl]imidazolio-1-yl]butyl]benzoate]",Number of mice that died/number of subject mice,CDF-1 mice; 50 mg/kg,0/5
same,IC50,[1],0.32 µg/mL
"O=C([O-])CCCCCn1cc[n+](CCOCCOCC(COCCCCCCCCCCCCC2CCCCC2)Oc2ncccn2)c1 (stereo not shown) [Example 25, 6-[3-[2-[2-[3-(12-cyclohexyldodecyloxy)-2-(pyrimidin-2-yloxy)propoxy]ethoxy]ethyl]imidazolio-1-yl]hexanoate]",IC50,[1],0.16 µg/mL
"CCCCCCCCCCCCCCCCCCOCC(COCCOCC[n+]1ccn(CCCCCC(=O)OC)c1)Oc1ncccn1.[Cl-] (stereo not shown) [Example 14, 1-(5-methoxycarbonylpentyl)-3-[2-[2-[3-octadecyloxy-2-(pyrimidin-2-yloxy)propoxy]ethoxy]-ethyl]imidazolium chloride]",IC50,[1],0.32 µg/mL
"CCCCCCCCCCCCCCCCCCOCC(COCCOCC[n+]1ccn(CCC(C)(C)C(=O)[O-])c1)Oc1ncccn1 (stereo not shown) [Example 16, 2,2-dimethyl-4-[3-[2-[2-[3-octadecyloxy-2-(pyrimidin-2-yloxy)propoxy]ethoxy]ethyl]imidazolio-1-yl]butyrate]",IC50,[1],0.63 µg/mL
"CCCCCCCCCCCCCCCCCCOCC(COCCOCCOCC[n+]1ccn(CCCC(=O)[O-])c1)Oc1ncccn1 (stereo not shown) [Example 21, 4-[3-[2-[2-[2-[3-octadecyloxy-2-(pyrimidin-2-yloxy)propoxy]ethoxy]ethoxy]ethyl]imidazolio-1-yl]-butyrate]",Number of mice that died/number of subject mice,CDF-1 mice; 100 mg/kg,0/5
same,IC50,[1],0.63 µg/mL
CCCCCCCCCCCCCCCCCCOCC(COCCOCC[n+]1ccn(CCCCCCCCC(=O)[O-])c1)Oc1ncccn1 (stereo not shown) [Example 7],IC50,[1],0.16 µg/mL
"CCCCCCCCCCCCCCCCCCOCC(COCCOCC[n+]1ccn(CCCCCC(=O)[O-])c1)Oc1ncccn1 (stereo not shown) [Example 1, 6-[3-[2-[2-[3-octadecyloxy-2-(pyrimidin-2-yloxy)-propoxy]ethoxy]ethyl]imidazolio-1yl]hexanoate]",Number of mice that died/number of subject mice,CDF-1 mice; 50 mg/kg,0/5
same,Growth inhibition ratio (1-T/C %),Sarcoma 180 cells [3],65%
same,IC50,[1],0.16 µg/mL
"CCCCCCCCCCCCCCCCCCOCC(COCCOCC[N+](C)(C)CCCCCC(=O)[O-])Oc1ncccn1 (stereo not shown) [Example 9, 6-[N,N-dimethyl-N-[2-[2-[3-octadecyloxy-2-(pyrimidin-2-yloxy)propoxy]ethoxy]ethyl]ammonio]-hexanoate]",Number of mice that died/number of subject mice,CDF-1 mice; 100 mg/kg,0/5
same,IC50,[1],1.25 µg/mL
"CCCCCCCCCCCCCCCCCCOCC(COCCOCC[n+]1ccn(CCCC(=O)[O-])c1)Oc1ncccn1 (stereo not shown) [Example 8, 4-[3-[2-[2-[3-octadecyloxy-2-(pyrimidin-2-yloxy)-propoxy]ethoxy]ethyl]imidazolio-1-yl]butyrate]",Number of mice that died/number of subject mice,CDF-1 mice; 100 mg/kg,0/5
same,IC50,[1],1.25 µg/mL
same,Growth inhibition ratio (1-T/C %),Sarcoma 180 cells [4],66%
"CCCCCCCCCCCCCCCCCCOCC(COCCOCC[n+]1cccc(CCC(=O)[O-])c1)Oc1ncccn1 (stereo not shown) [Example 12, 3-[1-[2-[2-[3-octadecyloxy-2-(pyrimidin-2-yloxy)-propoxy]ethoxy]ethyl]pyridinio-3-yl]propionate]",Number of mice that died/number of subject mice,CDF-1 mice; 100 mg/kg,0/5
same,IC50,[1],0.63 µg/mL
same,Growth inhibition ratio (1-T/C %),Sarcoma 180 cells [4],81%
"CCCCCCCCCCCCCCCCCCOCC(COCCOCC[n+]1ccn(CCCCC2CCC(C(=O)[O-])CC2)c1)Oc1ncccn1 (stereo not shown) [Example 11, 4-[4-[3-[2-[2-[3-octadecyloxy-2-(pyrimidin-2-yloxy)propoxy]ethoxy]ethyl]imidazolio-1-yl]butyl]-cyclohexylcarboxylate]",IC50,[1],0.32 µg/mL
"CCCCCCCCCCCCCCCCCCOCC(COCCOCC[n+]1cccc(CCCOC(=O)CCC(=O)[O-])c1)Oc1ncccn1 (stereo not shown) [Example 19, 3-[1-[2-[2-[3-octadecyloxy-2-(pyrimidin-2-yloxy)-propoxy]ethoxy]ethyl]pyridinio-3-yl]propyl succinate]",IC50,[1],0.63 µg/mL
"CCCCCCCCCCCCCCCCCCOCC(COCCOCCOCC[n+]1ccn(CCCCCC(=O)[O-])c1)Oc1ncccn1 (stereo not shown) [Example 20, 6-[3-[2-[2-[2-[3-octadecyloxy-2-(pyrimidin-2-yloxy)propoxy]ethoxy]ethoxy]ethyl]imidazolio-1-yl]-hexanoate]",Number of mice that died/number of subject mice,CDF-1 mice; 100 mg/kg,0/5
same,IC50,[1],0.32 µg/mL
